The structures appear in SMILES notation. pIC50: −log10 of the molar value. Values joined by “and” are separate entries in the source; they are usually repeats but may differ in a detail not shown here. Identical values can stand only once. Residues, ends and D or L forms follow the SMILES beside them. *: point of attachment. Decanoyl = CCCCCCCCCC(=O)*; CH2Cl = ClC*

Series [1] relates to 293T HEK cell line. The series is described as follows: Cell viability by 7-AAD flow cytometry. Format: cell-based. The settings on record: for Alive (%) / Dead (%): 293T HEK; for percentage of live cells: half of the IC50 for physiological furin, no compound 94.25% ± 3.18%. The protocol:
New furin inhibitors identified by virtual screening were tested in cell viability assays. The 293T HEK cell line (human embryonic kidney cell line purchased from American Type Culture Collection) was used as healthy cell model. They were cultured in DMEM containing 4,5 g/L glucose, supplemented with 10% fetal bovine serum, 1% GlutaMax, and 0,1% gentamicin. They were maintained in Corning® T-75 flasks (catalog #430641; ThermoFisher Scientific, Waltham, MA, USA) at 37 °C and 5% carbon dioxide. At 100% cellular confluence, cells were subcultured in 12-well plates (flat bottom, sterile, NUNC brand, Biolab, Madrid, Spain) at 100,000 cells/mL for 24 h. Then, different concentrations (double, half, and full IC50 concentrations for physiological furin) of furin inhibitors were added to cells for 24 h, and cells were collected afterward. The experiment was run in duplicates. Then, the cell pellet was resuspended in running buffer (autoMACS ® Running Buffer–MACS Separation Buffer; order no.:130-091-221; Miltenyi Biotec, Madrid, Spain) and 7-AAD (Cat: 51-68981E; BD Biosciences, Madrid, Spain). Finally, this solution was evaluated in a flow cytometer (BD Accuri™ C6 Plus Flow Cytometer; BD Biosciences, Madrid, Spain) to calculate mortality rates. A blank solution with cell pellet resuspended in running buffer was used to discard cell autofluorescence. The results were analyzed in FlowJo software (v. 10).

In series [2] the target is T1, human recombinant furin (Homo sapiens, UniProt P09958).
T1 construct: purchased R&D Systems 1503-SE-010
The series is described as follows: Fluorogenic furin inhibition assay, recombinant furin. Format: biochemical. To be noted: 3.6 nM human recombinant furin, 50 µM fluorogenic substrate, pH 9. The protocol:
Clexane (LMWH, enoxaparin sodium, Clexane, Sanofi Aventis S.A., Barcelona, Spain) and each candidate compound selected by virtual screening were assayed as inhibitors of human recombinant furin (1503-SE-010; Lot#INK2320031; R&D Systems) and physiological furin secreted from U-251 MG cells. For both types of furin, the fluorogenic specific substrate (mentioned above) was used. […] Compounds were reconstituted in their appropriate solvents (distilled water, ethanol, PBS, etc.), according to the supplier’s instructions. In a 96-well black plate, U-251 MG secretome concentrated 10× or 3.6 nM human recombinant furin were incubated with different compound concentrations for 10 min at room temperature, and then, 50 µM furin specific fluorogenic substrate was added to every well, except one blank. Fluorescence was recorded in the Multiskan Go plate reader at 380 and 460 nm for emission and excitation wavelengths, respectively, at 37 °C for 30 min.
The IC50 was calculated only for those compounds that inhibited recombinant and physiological furin. For each compound concentration, furin activity’s maximum velocity (mRFU/min) was recorded. Then, by using GraphPad software (v. 8), the correlation between the decimal logarithm (compound concentration) and furin activity’s maximum velocity was calculated by nonlinear regression (curve fit) for XY analyses. […]

Series [3] addresses T2, furin from the U-251 MG secretome (Homo sapiens, UniProt P09958).
T2 construct: physiological furin secreted from U-251 MG cells; endogenous in cells; host or cells: U-251 MG human glioblastoma cells; conditioned medium (secretome) concentrated 10x
The series is described as follows: Furin inhibition assay in coadjuvants with CMK. Format: biochemical. The settings on record: CMK alone, read-out: IC50 for CMK alone, physiological furin. The protocol:
The IC50 was calculated only for those compounds that inhibited recombinant and physiological furin. For each compound concentration, furin activity’s maximum velocity (mRFU/min) was recorded. Then, by using GraphPad software (v. 8), the correlation between the decimal logarithm (compound concentration) and furin activity’s maximum velocity was calculated by nonlinear regression (curve fit) for XY analyses. From this statistical method, the IC50 was calculated with a 95% confidence interval (CI).
Since furin inhibition by CMK had been tested only in physiological conditions, adjuvant inhibition assays were performed with furin from the U-251 MG secretome. Inhibition was assessed by using different concentrations of CMK (Cat.No. B5437; APExBIO) and the IC50 concentrations of selected virtual screening compounds or Clexane. In a 96-well black plate, various CMK (0–50 µM) concentrations were incubated with the IC50 concentrations of the rest of the compounds and with 10× U-251 MG secretome as described above. After 10 min incubation at room temperature, 50 µM furin specific fluorogenic substrate was added and the plate was read in a Multiskan Go plate reader at 380 and 460 nm for emission and excitation wavelengths, respectively, at 37 °C for 30 min.

On the set-up of series [4]: method as in PMID 27241194, PMID 28254666. To be noted: rats or mice, doses between 5 and 20 mg/kg; cited from earlier work.
Where [5] appears, read: 2xIC50, single replicates of duplicate.
[6] abbreviates: IC50, single replicates of duplicate.
The mark [7] stands for this setting: IC50/2, single replicates of duplicate.
Setting [8] is: 293T cells, double IC50 concentration, 24 h.

T1 sequence (P09958 108-794): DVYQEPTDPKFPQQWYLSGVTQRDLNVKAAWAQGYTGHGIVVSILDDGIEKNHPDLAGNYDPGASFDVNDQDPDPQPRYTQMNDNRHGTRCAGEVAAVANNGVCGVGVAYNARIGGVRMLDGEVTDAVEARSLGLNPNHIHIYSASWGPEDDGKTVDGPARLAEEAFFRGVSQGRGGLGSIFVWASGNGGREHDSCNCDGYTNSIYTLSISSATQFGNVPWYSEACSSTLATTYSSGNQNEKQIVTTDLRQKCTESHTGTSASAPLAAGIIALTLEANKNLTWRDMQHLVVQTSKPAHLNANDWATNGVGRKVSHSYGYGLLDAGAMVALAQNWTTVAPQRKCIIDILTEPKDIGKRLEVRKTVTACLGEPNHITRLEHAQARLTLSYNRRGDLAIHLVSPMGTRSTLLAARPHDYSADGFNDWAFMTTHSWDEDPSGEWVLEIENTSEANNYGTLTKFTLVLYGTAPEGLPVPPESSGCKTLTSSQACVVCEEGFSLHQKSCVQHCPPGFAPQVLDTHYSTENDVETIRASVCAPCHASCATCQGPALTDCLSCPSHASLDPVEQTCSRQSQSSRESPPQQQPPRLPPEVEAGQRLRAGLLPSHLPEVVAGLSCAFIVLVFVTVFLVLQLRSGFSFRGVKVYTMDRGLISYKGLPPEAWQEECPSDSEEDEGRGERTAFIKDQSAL
T2 sequence (P09958 108-715 limits assumed): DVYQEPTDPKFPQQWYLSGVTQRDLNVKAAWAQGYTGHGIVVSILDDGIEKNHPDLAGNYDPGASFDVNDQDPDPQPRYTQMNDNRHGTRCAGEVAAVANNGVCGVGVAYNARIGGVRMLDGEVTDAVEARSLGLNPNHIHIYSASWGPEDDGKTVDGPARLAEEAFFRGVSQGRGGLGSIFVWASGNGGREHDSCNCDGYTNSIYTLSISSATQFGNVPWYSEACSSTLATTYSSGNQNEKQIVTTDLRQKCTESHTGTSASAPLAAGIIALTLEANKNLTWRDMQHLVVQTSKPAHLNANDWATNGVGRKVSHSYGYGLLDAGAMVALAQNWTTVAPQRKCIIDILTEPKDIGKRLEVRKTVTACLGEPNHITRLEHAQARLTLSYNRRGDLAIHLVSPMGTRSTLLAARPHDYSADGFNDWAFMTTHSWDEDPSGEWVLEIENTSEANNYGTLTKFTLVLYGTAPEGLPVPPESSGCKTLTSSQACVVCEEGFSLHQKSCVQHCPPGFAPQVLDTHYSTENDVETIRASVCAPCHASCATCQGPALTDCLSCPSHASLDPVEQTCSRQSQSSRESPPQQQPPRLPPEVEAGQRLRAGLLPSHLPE

For the molecule `CC1=C(/C=C/C(C)=C/C=C/C(C)=C/C=C/C=C(C)/C=C/C=C(C)/C=C/C2=C(C)C[C@@H](O)CC2(C)C)C(C)(C)C[C@H](O)C1` [Zeaxanthin], the “Alive (%)” value in series [1] (setting [5]) is 1.10% and 15.7%; in series [1] (setting [6]) it was 32.8% and 33.9%; in series [1] (setting [7]), 78.2% and 84.0%. In addition, the “Dead (%)” value was 84.3% and 98.9% in series [1] (setting [5]); 67.2% and 66.1% in series [1] (setting [6]); 21.8% and 16.0% in series [1] (setting [7]). For the same molecule, the “reduction of cell viability” value in series [1] (293T cells, IC50 concentration, 24 h) came to 61%. In addition, the “effect on cell viability” value in series [1] (setting [8]) is recorded as “nearly total death”. In addition, in series [1] (293T cells, 24 h), the “percentage of live cells” value is 81.1% ± 4.1%. Also, the pIC50 in series [2] was 4.04.
As for `CCCCCCCCCC(=O)N[C@@H](CCCNC(=N)N)C(=O)N[C@H](C(=O)N[C@@H](CCCCN)C(=O)N[C@@H](CCCNC(=N)N)C(=O)CCl)C(C)C` [CMK, Decanoyl-Arg-Val-Lys-Arg-chloromethylketone] (Decanoyl-RVKR-CH2Cl), the pIC50 in series [3] was 5.38.
As to `O=C(CCc1ccc(O)c(O)c1)NCCCNCCCCNCCCNC(=O)CCc1ccc(O)c(O)c1` [Kukoamine A], the “Alive (%)” value in series [1] (setting [5]) was 6.25% and 5.88%; in series [1] (setting [6]) it was 8.33% and 0%; in series [1] (setting [7]), 89.8% and 85.3%. The “Dead (%)” value in series [1] (setting [5]) is 94.1% and 93.8%; in series [1] (setting [6]) it was 91.7% and 100%; in series [1] (setting [7]) it was 10.2% and 14.7%. Also, the “effect on cell viability” value is “significantly reduced” in series [1] (setting [8]) and “significantly reduced” in series [1] (293T cells, full IC50 concentration, 24 h). The “percentage of live cells” value in series [1] (293T cells, 24 h) is 87.55% ± 1.48%. Besides, in series [2], the pIC50 is 2.97. Moreover, in series [4], the adverse effects entry is reported as “no significant reported adverse effects”.
